Test results: ChEMBL document CHEMBL1130277, “Three-dimensional quantitative structure-activity relationships from molecular similarity matrices and genetic neural networks. 2. Applications” (J Med Chem, 1997)

Molecular target: Acetylcholinesterase (Homo sapiens, UniProt P22303)
Sequence (P22303 whole entry): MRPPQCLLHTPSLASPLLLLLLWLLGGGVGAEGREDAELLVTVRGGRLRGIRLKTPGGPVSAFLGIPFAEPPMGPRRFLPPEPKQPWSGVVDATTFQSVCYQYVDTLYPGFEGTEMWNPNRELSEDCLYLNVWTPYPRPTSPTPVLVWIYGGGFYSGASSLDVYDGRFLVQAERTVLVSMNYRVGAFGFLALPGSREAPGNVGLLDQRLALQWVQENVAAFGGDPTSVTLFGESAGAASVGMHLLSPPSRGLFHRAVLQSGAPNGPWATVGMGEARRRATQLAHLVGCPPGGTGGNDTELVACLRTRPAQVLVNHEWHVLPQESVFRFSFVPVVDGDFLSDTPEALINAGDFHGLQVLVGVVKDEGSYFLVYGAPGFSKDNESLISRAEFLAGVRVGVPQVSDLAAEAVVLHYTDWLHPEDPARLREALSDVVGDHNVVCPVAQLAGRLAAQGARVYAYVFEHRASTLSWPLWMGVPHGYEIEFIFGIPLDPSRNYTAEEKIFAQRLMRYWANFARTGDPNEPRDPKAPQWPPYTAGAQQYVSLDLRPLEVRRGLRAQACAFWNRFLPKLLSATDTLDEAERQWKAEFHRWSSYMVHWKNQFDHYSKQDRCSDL
Description: Inhibition acetylcholinesterase (AChE) enzyme.

Row | Structure (SMILES) | IC50 [µM]
1 | CCC(=O)Oc1cc([N+](C)(C)C)ccc1C | 3.77
2 | CCC(=O)Oc1ccc(C)c([N+](C)(C)C)c1 | 69
3 | CCSCC[N+](C)(C)C | 1510
4 | C[N+](C)(C)CCCCCBr | 535
5 | C[N+](C)(C)CCCl | 2390
6 | C=CC[N+](C)(C)C | 2920
7 | CC(=O)Oc1cccc([N+](C)(C)C)c1 | 3.01
8 | Cc1ccc([N+](C)(C)C)cc1O | 3.11
9 | CCOCC[N+](C)(C)C | 1160
10 | CCC(=O)Oc1cccc([N+](C)(C)C)c1 | 5.97
11 | CC(=O)CCC[N+](C)(C)C | 84.7
12 | CC(=O)Oc1cc([N+](C)(C)C)ccc1C | 0.659
13 | C=CCC[N+](C)(C)C | 847
14 | C[N+]1(C)CCO[C@@](O)(C(F)(F)F)C1 | 3830
15 | C[N+](C)(C)c1cccc(N)c1 | 192
16 | COc1cccc([N+](C)(C)C)c1C | 239
17 | C[N+](C)(C)CCCBr | 87.9
18 | COc1cc([N+](C)(C)C)ccc1C | 122
19 | CC(=O)Oc1cccc([N+](C)(C)C)c1C | 40.8
20 | C[N+](C)(C)CCCCBr | 597
21 | COc1cccc([N+](C)(C)C)c1 | 597
22 | C[N+]1(C)CCO[C@@](O)(c2ccc(N)cc2)C1 | 690

Row | Structure (SMILES) | IC50 [µM]
23 | CCCC(=O)SCC[N+](C)(C)C | 126
24 | C[N+]1(C)CCO[C@@](O)(c2ccc(Cl)cc2)C1 | 8130
25 | C[N+](C)(C)CCCCI | 471
26 | Cc1ccc(O)cc1[N+](C)(C)C | 2.82
27 | COc1ccc(C)c([N+](C)(C)C)c1 | 345
28 | CC(=O)Oc1ccc(C)c([N+](C)(C)C)c1 | 5.33
29 | CCCC(=O)OCC[N+](C)(C)C | 229
30 | Cc1c(O)cccc1[N+](C)(C)C | 141
31 | C[N+](C)(C)c1cccc(O)c1 | 0.973
32 | C[C@@]1(O)C[N+](C)(C)CCO1 | 1730
33 | CC(C)(C)[C@@]1(O)C[N+](C)(C)CCO1 | 3710
34 | CC(=O)Nc1ccc([C@@]2(O)C[N+](C)(C)CCO2)cc1 | 2070
35 | C[N+]1(C)CCO[C@@](O)(c2ccc(C#N)cc2)C1 | 11600
36 | C[N+]1(C)CCO[C@H](O)C1 | 1760
37 | C[N+](C)(C)CCS | 440
38 | C[N+](C)(C)c1cccc([N+](=O)[O-])c1 | 628
39 | CCC(=O)Oc1cccc([N+](C)(C)C)c1C | 753
40 | CC(=O)Nc1cccc([N+](C)(C)C)c1 | 1000
41 | C=CCCC[N+](C)(C)C | 1130
42 | C[N+]1(C)CCO[C@@](O)(c2ccc([N+](=O)[O-])cc2)C1 | 5120
43 | CCCCCC[N+](C)(C)C | 817

Molecular target: T1, Aryl hydrocarbon receptor (Homo sapiens, UniProt P35869)
T1 sequence (P35869 whole entry): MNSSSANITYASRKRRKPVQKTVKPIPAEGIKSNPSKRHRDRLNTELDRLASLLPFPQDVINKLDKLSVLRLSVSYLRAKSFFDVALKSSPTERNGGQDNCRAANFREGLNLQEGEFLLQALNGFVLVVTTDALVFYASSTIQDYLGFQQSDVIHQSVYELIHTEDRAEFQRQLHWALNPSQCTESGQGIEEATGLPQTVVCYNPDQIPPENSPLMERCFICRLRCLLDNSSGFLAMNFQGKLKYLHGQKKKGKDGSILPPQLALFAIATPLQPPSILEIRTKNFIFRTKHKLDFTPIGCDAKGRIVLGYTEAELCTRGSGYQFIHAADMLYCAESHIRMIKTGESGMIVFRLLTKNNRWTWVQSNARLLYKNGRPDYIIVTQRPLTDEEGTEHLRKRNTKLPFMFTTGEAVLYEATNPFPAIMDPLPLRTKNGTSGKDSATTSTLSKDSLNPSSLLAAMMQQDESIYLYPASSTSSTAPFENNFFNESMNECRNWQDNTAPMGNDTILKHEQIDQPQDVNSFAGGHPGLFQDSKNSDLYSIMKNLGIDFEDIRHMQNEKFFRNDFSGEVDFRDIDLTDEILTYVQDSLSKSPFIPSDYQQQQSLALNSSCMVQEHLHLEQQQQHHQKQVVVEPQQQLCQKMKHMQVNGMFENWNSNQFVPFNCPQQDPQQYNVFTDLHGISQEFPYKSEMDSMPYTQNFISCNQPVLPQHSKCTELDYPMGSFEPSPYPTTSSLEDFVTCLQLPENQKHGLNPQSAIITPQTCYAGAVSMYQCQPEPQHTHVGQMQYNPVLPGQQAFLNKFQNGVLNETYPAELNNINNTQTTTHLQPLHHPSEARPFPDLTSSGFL
Description: Affinity on cytosolic Aromatic hydrocarbon receptor (Ah)

Row | Structure (SMILES) | EC50 [µM]
44 | Clc1ccc(-c2ccc(Cl)c(Cl)c2Cl)cc1Cl | 4.27
45 | Brc1ccc2c(c1)Oc1ccccc1O2 | 0.295
46 | Clc1cc(Cl)c2c(c1)oc1c(Cl)cc(Cl)c(Cl)c12 | 20
47 | Clc1ccc(-c2cc(Cl)c(Cl)c(Cl)c2)cc1Cl [POLYCHLORINATED BIPHENYL 126] | 0.13
48 | Clc1ccc2c(c1)oc1c(Cl)c(Cl)c(Cl)cc12 | 0.0251
49 | Clc1cc2c(cc1Cl)Oc1c(ccc(Cl)c1Cl)O2 | 0.16
50 | Clc1cc(Cl)c2c(c1)oc1c(Cl)c(Cl)c(Cl)cc12 | 0.2
51 | Clc1cc(-c2ccc(Cl)c(Cl)c2Cl)cc(Cl)c1Cl | 5
52 | Clc1ccc2oc3c(Cl)c(Cl)c(Cl)cc3c2c1 | 0.2
53 | Clc1cc2oc3c(Cl)cccc3c2c(Cl)c1Cl | 0.35
54 | Clc1c(Cl)c(Cl)c2c(c1Cl)Oc1ccccc1O2 | 1.3
55 | Clc1cc2c(cc1Br)Oc1cc(Br)c(Cl)cc1O2 | 0.000447
56 | Brc1cc(Br)c2c(c1)Oc1cc(Br)cc(Br)c1O2 | 0.0929
57 | Clc1ccc(-c2cc(Cl)c(Cl)c(Cl)c2Cl)cc1Cl | 7.1
58 | Clc1cc(Cl)c(-c2cc(Cl)c(Cl)c(Cl)c2)cc1Cl | 16
59 | Clc1cc2c(cc1Cl)Oc1cc(Br)c(Br)cc1O2 | 0.00148
60 | Clc1cc(Cl)c2c(c1)oc1ccc(Cl)cc12 | 85.1
61 | Clc1cc(Cl)c2c(c1)oc1c(Cl)cccc12 | 4.37
62 | Clc1ccc2oc3c(Cl)c(Cl)c(Cl)c(Cl)c3c2c1 | 0.12
63 | Clc1cccc2c1Oc1ccccc1O2 | 100
64 | Brc1ccc2c(c1)Oc1ccc(Br)cc1O2 | 0.0155
65 | Clc1cc(Cl)c(-c2cc(Cl)c(Cl)c(Cl)c2)c(Cl)c1 | 99.1

Row | Structure (SMILES) | EC50 [µM]
66 | Clc1ccc2c(c1)Oc1c(Cl)c(Cl)c(Cl)c(Cl)c1O2 | 6.46
67 | Clc1ccc2c(c1)oc1ccccc12 | 42
68 | Clc1cc(Cl)c2c(c1Cl)Oc1ccccc1O2 | 13
69 | Brc1cc2c(cc1Br)Oc1cc(Br)c(Br)cc1O2 | 0.0015
70 | Clc1cc(Cl)c2oc3c(Cl)cc(Cl)c(Cl)c3c2c1 | 3.1
71 | Clc1ccc2c(c1)Oc1cc(Cl)ccc1O2 | 3.2
72 | Clc1cc2c(oc3c(Cl)cccc32)c(Cl)c1Cl | 0.35
73 | Clc1cc2c(cc1Cl)Oc1c(Cl)c(Cl)cc(Cl)c1O2 | 1.1
74 | Clc1ccc2c(c1)oc1cc(Cl)c(Cl)c(Cl)c12 | 0.219
75 | Brc1ccc2c(c1)Oc1cc(Br)c(Br)cc1O2 | 0.00117
76 | Clc1ccc(-c2cc(Cl)c(Cl)c(Cl)c2Cl)cc1 | 4.1
77 | Clc1cc2oc3c(Cl)c(Cl)c(Cl)c(Cl)c3c2cc1Cl | 0.23
78 | Clc1ccc2c(oc3c(Cl)cc(Cl)c(Cl)c32)c1Cl | 0.0678
79 | Clc1cc2c(cc1Cl)Oc1c(Cl)cccc1O2 | 0.22
80 | Clc1ccc(-c2ccc(Cl)c(Cl)c2)cc1Cl | 0.71
81 | Clc1ccc(-c2cc(Cl)c(Cl)c(Cl)c2)c(Cl)c1 | 14.1
82 | Clc1ccc(-c2cc(Cl)c(Cl)c(Cl)c2)cc1 | 28
83 | Clc1c(Cl)c(Cl)c2c(c1Cl)Oc1c(Cl)c(Cl)c(Cl)c(Cl)c1O2 | 10
84 | Clc1cc2c(cc1Cl)Oc1c(cc(Cl)c(Cl)c1Cl)O2 | 0.0794
85 | Clc1cc(Cl)c2c(c1)Oc1cc(Cl)c(Cl)cc1O2 | 0.794
86 | Clc1cccc2c1oc1ccccc12 | 1000
87 | Clc1cc(Cl)c2c(c1)oc1cc(Cl)c(Cl)c(Cl)c12 | 0.4

Row | Structure (SMILES) | EC50 [µM]
88 | Clc1cc2c(oc3c(Cl)c(Cl)c(Cl)cc32)c(Cl)c1Cl | 0.0468
89 | Clc1cc2oc3cc(Cl)c(Cl)cc3c2cc1Cl | 0.041
90 | Clc1cc2c(cc1Cl)Oc1cc(Br)c(Cl)cc1O2 | 0.0115
91 | Clc1ccc2c(c1)Oc1cc(Cl)c(Cl)cc1O2 | 0.071
92 | Clc1cc(Cl)c(-c2cc(Cl)c(Cl)cc2Cl)cc1Cl [2,2',4,4',5,5'-HEXACHLOROBIPHENYL] | 79.4
93 | Clc1cc(Cl)c2oc3cc(Cl)c(Cl)cc3c2c1 | 0.22
94 | Clc1cc2c(cc1Cl)Oc1cc(Cl)c(Cl)cc1O2 [2,3,7,8-TETRACHLORODIBENZO-P-DIOXIN] | 0.01
95 | Brc1cc(Br)c2c(c1)Oc1cc(Br)c(Br)cc1O2 | 0.002
96 | Clc1cc2oc3cc(Cl)c(Cl)c(Cl)c3c2cc1Cl | 0.0741
97 | Clc1cc2oc3c(Cl)c(Cl)c(Cl)cc3c2cc1Cl | 0.0151
98 | Clc1cc2oc3c(Cl)c(Cl)cc(Cl)c3c2cc1Cl | 0.2
99 | Clc1cc2oc3c(Cl)cc(Cl)c(Cl)c3c2cc1Cl | 1.3
100 | Clc1cc2c(oc3c(Cl)cc(Cl)c(Cl)c32)c(Cl)c1Cl | 8.3
101 | Clc1cc(-c2ccccc2)c(Cl)c(Cl)c1Cl | 140
102 | Clc1cc2c(oc3cc(Cl)c(Cl)c(Cl)c32)c(Cl)c1Cl | 0.27
103 | Brc1cc2c(cc1Br)Oc1c(cc(Br)c(Br)c1Br)O2 | 0.00661
104 | Clc1cc2c(cc1Cl)Oc1c(Cl)c(Cl)c(Cl)c(Cl)c1O2 | 0.28
105 | Clc1ccc(-c2cc(Cl)c(Cl)cc2Cl)cc1Cl | 9.1
106 | Brc1cc2c(cc1Br)Oc1c(Br)c(Br)cc(Br)c1O2 | 0.017
107 | Clc1ccc2oc3c(Cl)cc(Cl)c(Cl)c3c2c1 | 10

Molecular target: GABA-A receptor; anion channel
Description: Inhibition on Benzodiazepine receptor

Row | Structure (SMILES) | pIC50
108 | CC(C)(C)COc1cc2c3ccccc3nc-2c[nH]1 | 7.02
109 | COC(=O)c1cc2c(cn1)[nH]c1ccccc12 [BETA-CCM] | 8.3
110 | c1ccc2c(c1)[nH]c1c2ccc2[nH]c3ccccc3c21 | 5.71
111 | CC(C)(C)C(=O)c1cc2c3ccccc3nc-2c[nH]1 | 6.45
112 | Clc1cc2c(cn1)[nH]c1ccccc12 | 7.35
113 | O=C1C2C=Nc3ccccc3C2=NN1c1ccccc1 (stereo unspecified) [CGS-8216] | 9.4
114 | CCCOc1cc2c(cn1)[nH]c1ccccc12 | 7.96
115 | c1ccc(COc2cc3c4ccccc4nc-3c[nH]2)cc1 | 6
116 | Cc1cccc2c1[nH]c1c3c4ccccc4nc-3c[nH]c12 | 7.17
117 | CC(C)(C)COC(=O)c1cc2c3ccccc3nc-2c[nH]1 | 6.12
118 | COc1ccc(-n2nc3c4ccccc4[nH]cc-3c2=O)cc1 | 10
119 | O=[N+]([O-])c1cc2c3ccccc3nc-2c[nH]1 | 6.9
120 | CCCCc1cc2c(cn1)[nH]c1ccccc12 | 6.64
121 | Cn1c2ccccc2c2[nH]cc3nc4ccccc4c-3c21 | 6.8
